Common to all, as to assay: Method 1: intracellular Ca2+ release (FLIPR, Calcium 5) in recombinant CHO-K1 cells
Common to all, as to type: cell-based

One experiment deals with T1, human S1PR3 receptor (Homo sapiens, UniProt Q99500).
T1 construct: host or cells: CHO-K1
As to conditions: (1): determined with method 1; read-out: S1P3 EC50. As for the experimental part: (§1) Agonistic activity was measured using two different methods, described below.
(§2) Method 1. Intracellular Ca^2+ Release
(§3) Agonist potency and intrinsic activity was assessed by measurement of intracellular Ca^2+ release. Recombinant CHO-K1 cells (Euroscreen, Brussels, Belgium) expressing human S1PR5, S1PR1, S1PR3 or S1PR4 receptors, aequorin, and GTP binding protein Gq/i5 were cultured using a medium containing nutrient mixture F-12 Ham (Sigma-Aldrich) with 10% FBS, and 100 μg/mL gentamicin and equilibrated at 5% CO2.
(§4) 15.000 cells in 20 μL medium were seeded into Biocoat poly-D-Lysine coated 384 well plates (Becton Dickinson #35-6663) and grown to 95% confluency after 24 h.
(§5) Culture medium was replaced by an assay buffer consisting of HBBS with Ca^2+ and Mg^2+ (Invitrogen #14025-050), 20 mmol/L Hepes (Sigma-Aldrich #H-3375), 2.5 mmol/L probenecid (Sigma-Aldrich #P-8761, and 0.1% BSA (Sigma-Aldrich #A-7030) pH 7.4. The Calcium 5 no-wash FLIPR assay kit (Molecular Devices #5000625) was performed as described in the kit instructions. Cells were incubated with Calcium 5 dye for 1 h at 37° C., 5% CO2 in the dark. After 45 min adaptation to RT assessment of agonist stimulation of intracellular Ca^2+ release was performed by addition of test compounds at concentrations obtained by serial dilution. Phospho-fingolimod was used as positive control. Antagonists were pre-incubated for 10 min with cells before addition of the agonist (phospho-fingolimod at EC80). Measurements were performed using a fluorometric imaging plate reader FLIPR® tetra (Molecular Devices). Agonist at the human S1P receptors were characterized by deducing EC50 (potency) values from a nonlinear fit to the measured fluorescence raw data after normalization to the reference agonist (phospho-fingolimod) curve.

Another experiment has as its target T2, human S1PR5 receptor (Homo sapiens, UniProt Q9H228).
T2 construct: host or cells: CHO-K1
To be noted: agonist potency, determined with method 1 (symbols A-D); read-out: S1P5 EC50 range. As to the method:
as §1, §2, §3, §4, §5

Another experiment concerns the target T3, human S1PR1 receptor (Homo sapiens, UniProt P21453).
T3 construct: host or cells: CHO-K1
To be noted: (1): determined with method 1; read-out: S1P1 EC50. As to the method: as §1, §2, §3, §4, §5

T2 sequence (Q9H228 whole entry): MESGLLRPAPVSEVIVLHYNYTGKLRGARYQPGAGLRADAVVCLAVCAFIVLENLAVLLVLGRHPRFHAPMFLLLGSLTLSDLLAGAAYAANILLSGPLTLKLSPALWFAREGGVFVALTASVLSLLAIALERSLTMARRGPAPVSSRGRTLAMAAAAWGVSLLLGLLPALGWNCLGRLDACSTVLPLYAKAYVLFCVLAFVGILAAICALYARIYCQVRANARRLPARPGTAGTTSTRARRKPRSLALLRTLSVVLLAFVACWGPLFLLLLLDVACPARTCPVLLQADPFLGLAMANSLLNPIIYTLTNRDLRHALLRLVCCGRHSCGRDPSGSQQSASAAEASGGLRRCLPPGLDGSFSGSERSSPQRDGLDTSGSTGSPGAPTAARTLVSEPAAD
T3 sequence (P21453 whole entry): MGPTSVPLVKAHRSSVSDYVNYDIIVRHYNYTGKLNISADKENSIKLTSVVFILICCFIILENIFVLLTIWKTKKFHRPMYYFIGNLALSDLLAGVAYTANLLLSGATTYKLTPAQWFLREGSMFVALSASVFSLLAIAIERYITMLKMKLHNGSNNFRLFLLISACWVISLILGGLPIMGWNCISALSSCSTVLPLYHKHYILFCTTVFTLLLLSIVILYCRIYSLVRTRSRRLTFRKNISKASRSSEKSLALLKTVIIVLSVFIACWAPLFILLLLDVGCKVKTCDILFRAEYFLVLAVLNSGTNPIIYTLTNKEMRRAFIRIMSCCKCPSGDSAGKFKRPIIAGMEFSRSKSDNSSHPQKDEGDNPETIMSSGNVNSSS
T1 sequence (Q99500 whole entry): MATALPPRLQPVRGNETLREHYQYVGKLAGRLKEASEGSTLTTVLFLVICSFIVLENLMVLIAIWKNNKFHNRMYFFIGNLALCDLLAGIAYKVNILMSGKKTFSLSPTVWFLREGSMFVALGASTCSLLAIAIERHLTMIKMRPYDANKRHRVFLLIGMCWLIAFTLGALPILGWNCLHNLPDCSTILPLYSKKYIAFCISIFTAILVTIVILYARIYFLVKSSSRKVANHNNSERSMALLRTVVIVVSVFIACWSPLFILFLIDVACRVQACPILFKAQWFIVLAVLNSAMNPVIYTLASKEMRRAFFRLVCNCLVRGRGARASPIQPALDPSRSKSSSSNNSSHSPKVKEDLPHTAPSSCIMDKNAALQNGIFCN

In general, EC50 refers to the concentration giving half of the maximal effect. Take `CSc1ccc(COc2ccc(-c3ncc4c(n3)CCN(CCC(=O)O)C4)cc2)cc1` [Compound 80, 3-(2-(4-((4-(methylthio)benzyl)oxy)phenyl)-7,8-dihydropyrido[4,3-d]pyrimidin-6(5H)-yl)propanoic acid]: the EC50 on human S1PR3 receptor was greater than 1000 nM; at human S1PR5 receptor it was less than 10 nM; at human S1PR1 receptor, greater than 1000 nM.
In the case of `CC(C)Oc1ccc(-c2ncc3c(n2)CCN(CCC(=O)O)C3)cc1` [Compound 75, 3-(2-(4-isopropoxyphenyl)-7,8-dihydropyrido[4,3-d]pyrimidin-6(5H)-yl)propanoic acid], the concentration giving a half-maximal response (EC50) at human S1PR3 receptor is greater than 1000 nM; at human S1PR5 receptor, 1000 to 10000 nM; at human S1PR1 receptor, greater than 1000 nM.
Consider `CC(CN1CCc2nc(-c3ccc(OCc4cccc(F)c4)cc3)ccc2C1)C(=O)O` (stereo not drawn) [Compound 109, 3-(2-(4-((3-fluorobenzyl)oxy)phenyl)-7,8-dihydro-1,6-naphthyridin-6(5H)-yl)-2-methylpropanoic acid], for which the EC50 is greater than 1000 nM at human S1PR3 receptor, less than 10 nM on human S1PR5 receptor and less than 1000 nM at human S1PR1 receptor.
Consider `Cc1cc(OC(F)(F)F)ccc1COc1ccc(-c2ncc3c(n2)CCN(CCC(=O)O)C3)cc1` [Compound 93, 3-(2-(4-((2-methyl-4-(trifluoromethoxy)benzyl)oxy)phenyl)-7,8-dihydropyrido[4,3-d]pyrimidin-6(5H)-yl)propanoic acid], for which the concentration giving a half-maximal response (EC50) at human S1PR3 receptor was greater than 1000 nM; on human S1PR5 receptor, less than 10 nM; on human S1PR1 receptor it was less than 1000 nM.
`O=C(O)CCN1Cc2ccc(-c3cccc(OCc4cccc(F)c4)c3)nc2C1` [Compound 203, 3-(2-(3-((3-fluorobenzyl)oxy)phenyl)-5H-pyrrolo[3,4-b]pyridin-6(7H)-yl)propanoic acid]: the EC50 at human S1PR3 receptor was greater than 1000 nM; at human S1PR5 receptor, 1000 to 10000 nM; at human S1PR1 receptor, greater than 1000 nM.
As to `Cc1cccc(C)c1COc1ccc(-c2ncc3c(n2)CCN(CC(C)C(=O)O)C3)cc1` (stereo not drawn) [Compound 15, 3-(2-(4-((2,6-dimethylbenzyl)oxy)phenyl)-7,8-dihydropyrido[4,3-d]pyrimidin-6(5H)-yl)-2-methylpropanoic acid], the EC50 at human S1PR3 receptor is greater than 1000 nM; at human S1PR5 receptor it was less than 10 nM; at human S1PR1 receptor, less than 1000 nM.
`O=C(O)CCN1CCc2ncc(-c3ccc(OCc4cccc(Cl)c4)cc3)nc2C1` [Compound 222, 3-(3-(4-((3-chlorobenzyl)oxy)phenyl)-7,8-dihydropyrido[3,4-b]pyrazin-6(5H)-yl)propanoic acid]: the results for the EC50 on human S1PR3 receptor, on human S1PR5 receptor and at human S1PR1 receptor were greater than 1000 nM, 1000 to 10000 nM and greater than 1000 nM, respectively.
For `O=C(O)CCN1CCc2nc(-c3ccc(OCc4ccc(F)cc4)cc3)c(F)cc2C1` [Compound 190, 3-(2-(4-((4-fluorobenzyl)oxy)phenyl)-3-fluoro-7,8-dihydro-1,6-naphthyridin-6(5H)-yl)propanoic acid], the half-maximal effective concentration (EC50) at human S1PR3 receptor is greater than 1000 nM; on human S1PR5 receptor it was less than 10 nM; on human S1PR1 receptor it was less than 1000 nM.
Turning to `Cc1cc(-c2ccc3c(n2)CCN(CC(=O)O)C3)ccc1OCc1ccc(C(F)(F)F)cc1` [Compound 112, 2-(2-(3-methyl-4-((4-(trifluoromethyl)benzyl)oxy)phenyl)-7,8-dihydro-1,6-naphthyridin-6(5H)-yl)acetic acid], the EC50 was greater than 1000 nM on human S1PR3 receptor, 100 to 1000 nM on human S1PR5 receptor and greater than 1000 nM on human S1PR1 receptor.
With `CC(CN1CCc2nc(-c3ccc(OCc4ccccc4)cc3F)ccc2C1)C(=O)O` (stereo not drawn) [Compound 102, 3-(2-(4-(benzyloxy)-2-fluorophenyl)-7,8-dihydro-1,6-naphthyridin-6(5H)-yl)-2-methylpropanoic acid], the EC50 at human S1PR3 receptor is greater than 1000 nM; on human S1PR5 receptor, 10 to 100 nM; on human S1PR1 receptor, less than 1000 nM.
Take `CC(C)Oc1ccc(-c2ncc3c(n2)CCN(CCCC(=O)O)C3)cc1` [Compound 46, 4-(2-(4-isopropoxyphenyl)-7,8-dihydropyrido[4,3-d]pyrimidin-6(5H)-yl)butanoic acid]: the EC50 is greater than 1000 nM on human S1PR3 receptor, 1000 to 10000 nM at human S1PR5 receptor and greater than 1000 nM on human S1PR1 receptor.
Turning to `O=C(O)CCN1CCc2nc(-c3ccc(OCc4ccc(C(F)(F)F)cc4)cc3)c(F)cc2C1` [Compound 191, 3-(2-(4-((4-trifluoromethylbenzyl)oxy)phenyl)-3-fluoro-7,8-dihydro-1,6-naphthyridin-6(5H)-yl)propanoic acid], the EC50 is greater than 1000 nM at human S1PR3 receptor, less than 10 nM at human S1PR5 receptor and less than 1000 nM at human S1PR1 receptor.
For `O=C(O)CCN1CCc2nc(-c3ccc(OCc4ccc(C(F)F)cc4)cc3)ncc2C1` [Compound 77, 3-(2-(4-((4-difluoromethylbenzyl)oxy)phenyl)-7,8-dihydropyrido[4,3-d]pyrimidin-6(5H)-yl)propanoic acid], the EC50 on human S1PR3 receptor is greater than 1000 nM; at human S1PR5 receptor, less than 10 nM; at human S1PR1 receptor, greater than 1000 nM.
Turning to `O=C(O)CCN1CCc2nc(-c3ccc(OCc4cccc(C(F)(F)F)c4)cc3)c(F)cc2C1` [Compound 194, 3-(2-(4-((3-trifluoromethylbenzyl)oxy)phenyl)-3-fluoro-7,8-dihydro-1,6-naphthyridin-6(5H)-yl)propanoic acid], the values for the EC50 at human S1PR3 receptor, at human S1PR5 receptor and on human S1PR1 receptor were greater than 1000 nM, less than 10 nM and greater than 1000 nM, respectively.
Turning to `CC(CN1CCc2nc(-c3ccc(OCc4ccc(F)c(F)c4)cc3)ncc2C1)C(=O)O` (stereo not drawn) [Compound 11, 3-(2-(4-((3,4-difluorobenzyl)oxy)phenyl)-7,8-dihydropyrido[4,3-d]pyrimidin-6(5H)-yl)-2-methylpropanoic acid], the concentration for a half-maximal effect (EC50) was greater than 1000 nM on human S1PR3 receptor, less than 10 nM on human S1PR5 receptor and greater than 1000 nM at human S1PR1 receptor.
Turning to `O=C(O)CCN1CCc2nc(-c3ccc(OCc4ccccc4)cc3)ncc2C1` [Compound 67, 3-(2-(4-(benzyloxy)phenyl)-7,8-dihydropyrido[4,3-d]pyrimidin-6(5H)-yl)propanoic acid], the EC50 is greater than 1000 nM at human S1PR3 receptor, 10 to 100 nM at human S1PR5 receptor and greater than 1000 nM on human S1PR1 receptor.
Turning to `Cc1cc(-c2cc3c(cn2)CN(CCC(=O)O)CC3)ccc1OCc1ccccc1` [Compound 171, 3-(6-(4-(benzyloxy)-3-methylphenyl)-3,4-dihydro-2,7-naphthyridin-2(1H)-yl)propanoic acid], the EC50 on human S1PR3 receptor is greater than 1000 nM; at human S1PR5 receptor, 10 to 100 nM; at human S1PR1 receptor, greater than 1000 nM.
Consider `O=C(O)CCN1CCc2nc(-c3ccc(OCc4cccc(OC(F)F)c4)cc3)ncc2C1` [Compound 92, 3-(2-(4-((3-(difluoromethoxy)benzyl)oxy)phenyl)-7,8-dihydropyrido[4,3-d]pyrimidin-6(5H)-yl)propanoic acid], for which the results for the half-maximal effective concentration (EC50) at human S1PR3 receptor, at human S1PR5 receptor and on human S1PR1 receptor were greater than 1000 nM, 10 to 100 nM and greater than 1000 nM, respectively.
With `CC(CC(=O)O)N1CCc2nc(-c3ccc(OCc4cccc(Cl)c4)cc3)ncc2C1` (stereo not drawn) [Compound 43, 3-(2-(4-((3-chlorobenzyl)oxy)phenyl)-7,8-dihydropyrido[4,3-d]pyrimidin-6(5H)-yl)butanoic acid], the EC50 at human S1PR3 receptor is greater than 1000 nM; at human S1PR5 receptor, 100 to 1000 nM; on human S1PR1 receptor, greater than 1000 nM.
Regarding `Cc1ccc(C(F)(F)F)cc1COc1ccc(-c2ccc3c(n2)CCN(CCC(=O)O)C3)cc1` [Compound 158, 3-(2-(4-((2-methyl-5-(trifluoromethyl)benzyl)oxy)phenyl)-7,8-dihydro-1,6-naphthyridin-6(5H)-yl)propanoic acid], the results for the EC50 at human S1PR3 receptor, on human S1PR5 receptor and at human S1PR1 receptor were greater than 1000 nM, 10 to 100 nM and greater than 1000 nM, respectively.
As for `CC(CN1CCc2nc(-c3ccc(OCc4ccccc4)c(Cl)c3)ccc2C1)C(=O)O` (stereo not drawn) [Compound 106, 3-(2-(4-(benzyloxy)-3-chlorophenyl)-7,8-dihydro-1,6-naphthyridin-6(5H)-yl)-2-methylpropanoic acid], the results for the EC50 on human S1PR3 receptor, at human S1PR5 receptor and on human S1PR1 receptor were greater than 1000 nM, 10 to 100 nM and greater than 1000 nM, respectively.
`O=C(O)CCN1CCc2nc(-c3ccc(OCc4cccc(F)c4F)cc3)c(F)cc2C1` [Compound 197]: the EC50 on human S1PR3 receptor is greater than 1000 nM; at human S1PR5 receptor it was less than 10 nM; at human S1PR1 receptor, less than 1000 nM.
Take `CC(CC(=O)O)CN1CCc2nc(-c3ccc(OCc4ccc(Cl)cc4)cc3)ncc2C1` (single isomer, unassigned; (-)) [Compound 213, (−)-4-(2-(4-((4-chlorobenzyl)oxy)phenyl)-7,8-dihydropyrido[4,3-d]pyrimidin-6(5H)-yl)-3-methylbutanoic acid]: the concentration for a half-maximal effect (EC50) on human S1PR3 receptor is greater than 1000 nM; on human S1PR5 receptor, 10 to 100 nM; at human S1PR1 receptor, greater than 1000 nM.
With `O=C(O)CCN1CCc2nc(-c3ccc(OCc4cccc(OC(F)F)c4)cc3)ccc2C1` [Compound 164, 3-(2-(4-((3-difluoromethoxybenzyl)oxy)phenyl)-7,8-dihydro-1,6-naphthyridin-6(5H)-yl)propanoic acid], the half-maximal effective concentration (EC50) on human S1PR3 receptor was greater than 1000 nM; at human S1PR5 receptor, less than 10 nM; on human S1PR1 receptor, less than 1000 nM.

(Values after US10556907B2 (AbbVie Inc., priority 2015, dated 2020).)
